This assay deals with T1, LpFAT A (FAT A from LEMPA; acyl-ACP thioesterase) (Lemna aequinoctialis, UniProt Z9A7P1QTQ5).
T1 construct: chloroplast transit peptide replaced by N-terminal 6xHis-tag; pET24; E. coli BL21Star(DE3); Ni-NTA purified
T1 sequence (Z9A7P1QTQ5 10-320): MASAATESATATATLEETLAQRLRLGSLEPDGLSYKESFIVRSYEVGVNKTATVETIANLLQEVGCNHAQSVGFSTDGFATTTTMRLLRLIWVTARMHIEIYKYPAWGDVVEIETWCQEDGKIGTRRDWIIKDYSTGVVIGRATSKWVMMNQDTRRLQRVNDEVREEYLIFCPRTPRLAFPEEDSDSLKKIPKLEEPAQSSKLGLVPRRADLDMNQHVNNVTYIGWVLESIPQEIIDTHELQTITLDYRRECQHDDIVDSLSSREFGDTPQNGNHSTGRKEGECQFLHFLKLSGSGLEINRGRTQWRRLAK
Put plainly: fluorescence polarization competition with fluorescent tracer. It counts as binding. The conditions noted are these: 25 mM potassium phosphate pH 7.3, 200 mM NaCl, 0.01% Triton X-100, 2 nM tracer, room temperature; value is negative log. From the text:
fluorescence polarization competition with fluorescent tracer on LpFAT A (FAT A from LEMPA; acyl-ACP thioesterase)
Compound `Cc1cc2c(nc1-c1ccccc1)NCS2` [7a] returned a pI50 of 5.9. In turn, `Cc1cc2c(nc1-c1ccccc1F)NCS2` [7b, 5-(2-Fluorophenyl)-6-methyl-2,3-dihydro[1,3]thiazolo[4,5-b]pyridine] gave a pI50 of 6.1.

Consider `Cc1ccccc1-c1nc2c(cc1C)SCN2` [7c], for which the pI50 is on record as 6.3. Take `Brc1cc2c(nc1-c1ccccc1)NCS2` [13a, 6-Bromo-5-phenyl-2,3-dihydrothiazolo[4,5-b]pyridine]: the pI50 was found to be 5.7. The result for `Fc1ccccc1-c1nc2c(cc1Br)SCN2` [13b, 6-bromo-5-(2-fluorophenyl)-2,3-dihydro[1,3]thiazolo[4,5-b]pyridine] reads 7.3. As for `Cc1ccccc1-c1nc2c(cc1Br)SCN2` [13c, 6-bromo-5-(2-tolyl)-2,3-dihydrothiazolo[4,5-b]pyridine], the pI50 is listed as 4.5.

Turning to `CC(=O)N1CSc2cc(Br)c(-c3ccccc3)nc21` [14a], the pI50 is reported as 5.5. On to `CC(C)C(=O)N1CSc2cc(Br)c(-c3ccccc3F)nc21` [14b], for which the pI50 amounted to 4.7. In the case of `CC(=O)N1CSc2cc(Br)c(-c3ccccc3C)nc21` [14c], the pI50 is 4.3.

On to `CC(=O)N1CSc2cc(C)c(-c3ccccc3)nc21` [16a], for which the pI50 worked out at 5.5. The value for `Cc1cc2c(nc1-c1ccccc1)N(C(=O)C(C)C)CS2` [16b] was 4.7; that for `CC(=O)N1CSc2cc(C)c(-c3ccccc3F)nc21` [16c, 1-[5-(2-fluorophenyl)-6-methyl[1,3]thiazolo[4,5-b]pyridin-3(2H)-yl]ethanone] was 5.3. Take `Cc1cc2c(nc1-c1ccccc1F)N(C(=O)C(C)C)CS2` [16d]: the pI50 was 4.7.

As for `CC(=O)N1CSc2cc(C)c(-c3ccccc3C)nc21` [16e], the pI50 was 4.1. `Cc1ccccc1-c1nc2c(cc1C)SCN2C(=O)C(C)C` [16f]: the pI50 is on record as 4.8.

For `BN1CSc2cc(Br)c(-c3ccccc3C)nc21` [17d, aminoborane 17d], the pI50 came out at 4.8.

As for `Cc1ccccc1-c1nc2c(cc1Br)SCN2B1NB(N)N1` [17e, aminoborane 17e], the pI50 is listed as < 4.0. `Cc1ccccc1COC1CC2(C(C)C)CCC1(C)O2` (centres unmarked) [compound 1, cinmethylin, reference compound]: the pI50 worked out at 6.8. The value for `Cc1ccsc1C1=NOC(C)(COCc2c(F)cccc2F)C1` (centres unmarked) [compound 2, methiozolin, reference compound] was 7.1. Regarding `Cc1cc2scnc2nc1-c1ccccc1F` [compound 5, 5-(2-fluorophenyl)-6-methyl[1,3]thiazolo[4,5-b]pyridine, reference compound], the pI50 was found to be 7.2.

Source of the values: publication PMC10910475, “Synthesis and biological profile of 2,3-dihydro[1,3]thiazolo[4,5-b]pyridines, a novel class of acyl-ACP thioesterase inhibitors” (Beilstein Journal of Organic Chemistry, 2024).
